From patent US9650420B2, “Peptides for preventing or treating bone diseases and use thereof” (KYUNGPOOK NATIONAL UNIVERSITY INDUSTRY—ACADEMIC COOPERATION …, priority 2015, dated 2017)
Where no end group is shown, it is not given here.

Assays:
[1] = test system: adhesion factors for hematopoietic stem cells present in osteoblasts; assay: Expression level of adhesion factors in osteoblasts differentiated from BM-MSC (real-time quantitative PCR); assay type: cell-based, C57BL/6 mouse; conditions: osteoblasts treated with 0 nM and 10 nM for three days, compared with untreated Control; p<0.05
Excerpt: After a 4-week- to 6-week-old C57BL/6 mouse was anesthetized and sacrificed, the tibias and the femurs were removed. Bone marrow was harvested from the tibias and the femurs, and a single cell suspension was obtained by using a 40 μm cell strainer (Becton-Dickinson LAβware, Franklin Lakes, N.J.). About 10^7 cells were divided in a 75-cm^2 flask including Mesenchymal Stem Cell Stimulatory Supplements (Stem Cell Technologies, Inc.) added with antibiotics and MesenCult™ MSC Basal medium. After being cultured for one week, the cells were cultured for three weeks in StemXVivo Osteogenic/Adipogenic Base Media (R&D systems) added with StemXVivo Osteogenic supplement (20×) and penicillin-streptomycin (100×) for differentiation into osteoblasts. The culture media were replaced every 2 to 3 days.
(§1) In order to measure expression levels of adhesion factors (Sdf-1a, Kitl, Angpt1, IL7, Vcam1, Spp1) for hematopoietic stem cells present in osteoblasts, a real-time quantitative PCR was used.
An RNeasy Plus mini kit (Qiagen, Korea, Ltd.) was used to extract total RNA from a cell eluent and bone marrow cells. […] Further, a Corbett research RG-6000 real-time PCR device was used to perform a real-time quantitative PCR repeatedly for 40 cycles under a condition of 95° C. for 10 minutes; 95° C. for 10 seconds; 58° C. for 15 seconds; and 72° C. for 20 seconds per cycle. […]

[2] = test system: bone marrow hematopoietic stem cells; assay: Mobilization of bone marrow hematopoietic stem cells to blood in osteoporosis model, by markers of bone marrow hematopoietic stem cells; assay type: in vivo, mice; conditions: osteoporosis (ovariectomy) model, 50 μg/kg intraperitoneally every 12 hours for 3 weeks; p<0.05
Experimental: FIG. 9 is a diagram illustrating a mobilization level of bone marrow hematopoietic stem cells to blood when Osteopep1 is administered to an osteoporosis model, by using a marker of a bone marrow hematopoietic stem cell.
(§2) After 1 week, 50 μg/kg of Osteopep1 (PEPTRON) and 100 μl of PBS (Gibco) were intraperitoneally administered every 12 hours twice per day for 3 weeks.
In order to check whether mobilization of bone marrow hematopoietic progenitor cells to blood in an osteoporosis model is induced by Osteopep1 of the present disclosure, the following experiment was conducted.

[3] = test system: adhesion factors (Sdf-1a, Kitl, Angpt1, IL7, Vcam1, Spp1) for hematopoietic stem cells; assay: Expression of adhesion factors for bone marrow hematopoietic stem cells in osteoporosis model (real-time quantitative PCR); assay type: in vivo, mice; conditions: osteoporosis (ovariectomy) models, 50 μg/kg intraperitoneally every 12 hours for 3 weeks; p<0.05
Experimental: as §2, §1
(§3) An RNeasy Plus mini kit (Qiagen, Korea, Ltd.) was used to extract total RNA from a cell eluent and bone marrow cells. A kit produced by Clontech (Mountain View, Calif.) was used to synthesize cDNA from 5 μg of the total RNA. Further, a Corbett research RG-6000 real-time PCR device was used to perform a real-time quantitative PCR repeatedly for 40 cycles under a condition of 95° C. for 10 minutes; 95° C. for 10 seconds; 58° C. for 15 seconds; and 72° C. for 20 seconds per cycle.
After 1 week, 50 μg/kg of Osteopep1 (PEPTRON) and 100 μl of PBS (Gibco) were intraperitoneally administered every 12 hours twice per day for 3 weeks. […] On the 22nd day, the femurs was separated from the mouse and refrigerated in 80% ethanol. Then, a bone density and a trabecular thickness were measured by micro CT. […]

[4] = test system: bone (femurs); assay: Micro CT of femurs: bone density and trabecular thickness in osteoporosis (ovariectomy) model and control mice; assay type: in vivo; conditions: osteoporosis model mouse, 50 μg/kg intraperitoneally twice per day for 3 weeks, compared with PBS; micro CT on 22nd day
Experimental: After 1 week, 50 μg/kg of Osteopep1 (PEPTRON) and 100 μl of PBS (Gibco) were intraperitoneally administered every 12 hours twice per day for 3 weeks. […] The femurs was separated from the mouse and refrigerated in 80% ethanol. Then, for micro CT scanning, a tissue having a thickness of 40 μm was measured with a micro CT scanner (Inveon preclinical CT, Siemens Healthcare, Hoffman Estates, Ill.) under conditions including an exposure time of 600 msec, photon energy of 70 keV, and a current of 400 μA. In order to measure a bone density (bone volume/total volume) and a trabecular thickness, pieces each having a volume of 2.5×0.5×0 5 mm^3 from the same site of each group were measured with Siemens Inveon Software. […] After 1 week, 50 μg/kg of Osteopep1 (PEPTRON) and 100 μl of PBS (Gibco) were intraperitoneally administered every 12 hours twice per day for 3 weeks. […] On the 22nd day, the femurs was separated from the mouse and refrigerated in 80% ethanol. Then, a bone density and a trabecular thickness were measured by micro CT.

[5] = test system: bone marrow hematopoietic stem cells (Lineage, Sca-1, c-kit); assay: Flow cytometry (FACs): number of bone marrow hematopoietic stem cells in bone marrow of normal mice; assay type: in vivo, C57BL/6 mice; conditions: 50 μg/kg vs PBS, bone marrow harvested after 60 minutes, p<0.05
Experimental: In order to find out any change in the number of bone marrow hematopoietic stem cells present in bone marrow of mice, Osteopep1 and PBS were injected to normal mice, respectively. After 60 minutes, bone marrow was harvested, and FACs was conducted to the harvested bone marrow by using three kinds of antibodies including Lineage, Sca-1, and c-kit as markers of bone marrow hematopoietic stem cells.
For analyzing bone marrow hematopoietic stem cells, red blood cells were removed from bone marrow, which was harvested from the tibias and the femurs of a 4-week- to 6-week-old C57BL/6 mouse, with an ammonium chloride solution (Stem Cell Technologies, Inc. 1:4) and then, the bone marrow was washed with a PBS (Gibco) solution including 10% fetal bovine serum (FBS) (Gibco) and 1% sodium azide (Sigma-Aldrich) and centrifuged for 10 minutes at 300×g. The hematopoietic cells included in the bone marrow were removed with MACs beads (Miltenyi Biotec) by using a biotinylated lineage antibody (Miltenyi Biotec), and the remaining cells were reacted at 4° C. for 30 minutes by using Sca-1-PECY7, c-kit-APC, CD150-PE, and CD48-FITC antibodies (BD science) and then analyzed with a flow cytometer LSRII (BD science).
Firstly, normal mice were divided into two groups each including 3 mice, and the respective groups were administered with 50 μg/kg of Osteopep1 and 100 μl of PBS (Gibco). […]

[6] = test system: bone marrow hematopoietic progenitor cells in blood; assay: Colony-forming unit (CFU) assay: number of bone marrow hematopoietic progenitor cells in blood of normal mice; assay type: in vivo, C57BL/6 mice; conditions: normal mouse, 50 μg/kg intravenous injection to tail, blood collected after 60 minutes; p<0.05
Experimental: In order to measure the number of bone marrow hematopoietic progenitor cells in blood of a mouse, CFU assays were conducted. A mouse was anesthetized, and then, 500 μl to 700 μl of blood was collected from the heart into a heparin tube. Then, the collected blood was put into an ammonium chloride solution (Stem Cell Technologies, Inc. 1:10) and then placed in ice for 15 minutes, and red blood cells were removed. The resultant solution was shaken every 2 to 3 minutes to remove red blood cells well, and then, centrifuged for 7 minutes at 1000 rpm. The supernatant was removed, and the resultant solution was washed with IMDM (Gibco) supplied with 2% fetal bovine serum (FBS) (Gibco). The washed cells (3×10^5 per mouse) were divided into three 35 mm dishes (1×10^5 per dish) respectively including methylcellulose-based media (Methocult, Stem cell), and then, cultured for 2 weeks. Then, the number of colonies in the flask was counted. In order to check whether mobilization of bone marrow hematopoietic progenitor cells to blood is induced by a decrease in expression level of the adhesion factors caused by administration of Osteopep1 of the present disclosure, a mouse was administered with 50 μg/kg of Osteopep1 by intravenous injection to its tail, and after 60 minutes, blood was collected from the heart. Then, a CFU (Colony-forming unit) assay was conducted thereto.

[7] = test system: bone marrow hematopoietic progenitor cells in blood; assay: CFU assay: mobilization of bone marrow hematopoietic progenitor cells to blood in osteoporosis model; assay type: in vivo, mice; conditions: osteoporosis (ovariectomy) models, 50 μg/kg intraperitoneally every 12 hours for 3 weeks; p<0.05
Experimental: After 1 week, 50 μg/kg of Osteopep1 (PEPTRON) and 100 μl of PBS (Gibco) were intraperitoneally administered every 12 hours twice per day for 3 weeks. […] In order to measure the number of bone marrow hematopoietic progenitor cells in blood of a mouse, CFU assays were conducted. A mouse was anesthetized, and then, 500 μl to 700 μl of blood was collected from the heart into a heparin tube. Then, the collected blood was put into an ammonium chloride solution (Stem Cell Technologies, Inc. 1:10) and then placed in ice for 15 minutes, and red blood cells were removed. The resultant solution was shaken every 2 to 3 minutes to remove red blood cells well, and then, centrifuged for 7 minutes at 1000 rpm. The supernatant was removed, and the resultant solution was washed with IMDM (Gibco) supplied with 2% fetal bovine serum (FBS) (Gibco). The washed cells (3×10^5 per mouse) were divided into three 35 mm dishes (1×10^5 per dish) respectively including methylcellulose-based media (Methocult, Stem cell), and then, cultured for 2 weeks. Then, the number of colonies in the flask was counted. In order to find out effects of administration of Osteopep1 of the present disclosure on bone marrow hematopoietic progenitor cells mobilized to blood in an osteoporosis model, an experiment was conducted in the same manner as the method of Example 1-4.

[8] = test system: adhesion factors (Sdf-1a, Kitl, Angpt1, IL7, Vcam1, Spp1) for hematopoietic stem cells; assay: Expression level of adhesion factors for hematopoietic stem cells in bone marrow of normal mice (real-time quantitative PCR); assay type: in vivo, C57BL/6 mice; conditions: normal mouse, 50 μg/kg intravenous injection to tail, bone marrow harvested after 60 minutes; p<0.05
Experimental: Osteopep1 used herein was produced by PEPTRON. For in vitro experiment, 0 nM Osteopep1 and 10 nM Osteopep1 were diluted in respective media and then injected. Further, for in vivo experiment, three mice per group, fifteen mice in total, were anesthetized with a mixed solution of 100 mg/kg of ketamine and 10 mg/kg of xylazine. Further, the each mouse was administered with 50 μg/kg of Osteopep1 and 100 μl of PBS (Gibco) by intravenous injection to its tail.
as §1
as §3, with “cycle. […]” for “cycle.”

With DNPGEDAPAEDMARY [Osteopep1] the “expression levels of Sdf-1a, Kitl, and Angpt1 in osteoblasts” value [1] was “concentration-dependently decreased”, the “mobilized amounts of the markers of bone marrow hematopoietic stem cells” value [2] was “increased” and the “expression levels of the adhesion factors (Sdf-1a, Kitl, Angpt1, IL7, Vcam1, Spp1) for hematopoietic stem cells” value [3] was “decreased”. For the same sequence, the “bone density percentage (BV/TV, %)” value [4] was “increased”, the “trabecular thickness (mm)” value [4] was “increased” and the “bone marrow hematopoietic stem cells marked by Lineage, Sca-1, and c-kit in bone marrow (FACs)” value [5] was “decreased”. The “mobilization of bone marrow hematopoietic progenitor cells to blood (CFU assay)” value [6] was “increased”, the “mobilization of bone marrow hematopoietic progenitor cells to blood (CFU assay)” value [7] was “increased” and the “expression levels of the main adhesion factors Sdf-1a, Kitl, Angpt1, and Spp1” value [8] was “decreased”.
